According to ChEMBL document CHEMBL1201862, “PubChem BioAssay data set” (2004):
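Interpolation was linear, between the two tested concentrations surrounding the appropriate level; five concentrations were tested over 48 hours in 96-well plates. At the GI50, growth is halved.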 Calls of active or inactive are those of the source. Cut-off read from the data, not from the text of the source: active = GI50 up to about 1.1 µM and inactive = higher.

Experiments:
Assay in all cases: DTP human tumour cell line panel, 48 h
[1] = tested on: UACC-257
[2] = tested on: HOP-62
[3] = tested on: NCI-H23
[4] = tested on: EKVX
[5] = tested on: SN12C
[6] = tested on: PC-3
[7] = tested on: 786-0
[8] = tested on: COLO 205
[9] = tested on: MDA-MB-435
[10] = tested on: HCC 2998
[11] = tested on: CAKI-1
[12] = tested on: A498
[13] = tested on: IGROV-1
[14] = tested on: T47D
[15] = tested on: SK-MEL-28
[16] = tested on: LOX IMVI
[17] = tested on: UO-31
[18] = tested on: CCRF-CEM
[19] = tested on: DU-145
[20] = tested on: RPMI-8226

Structure (SMILES)	GI50 [1]	GI50 [2]	GI50 [3]	GI50 [4]	GI50 [5]	GI50 [6]	GI50 [7]	GI50 [8]	GI50 [9]	GI50 [10]	GI50 [11]	GI50 [12]	GI50 [13]	GI50 [14]	GI50 [15]	GI50 [16]	GI50 [17]	GI50 [18]	GI50 [19]	GI50 [20]
COc1ccc(N(C(=O)Nc2ccc(Cl)c(Cl)c2)c2ccccc2)cc1	> 10 µM (inactive)	> 10 µM (inactive)	> 10 µM (inactive)	> 10 µM (inactive)	> 10 µM (inactive)	> 10 µM (inactive)	> 10 µM (inactive)	> 10 µM (inactive)	> 10 µM (inactive)	> 10 µM (inactive)	> 10 µM (inactive)	> 10 µM (inactive)	> 10 µM (inactive)	> 10 µM (inactive)	> 10 µM (inactive)	> 10 µM (inactive)	> 10 µM (inactive)	> 10 µM (inactive)	> 10 µM (inactive)	–
FC(F)(F)c1cccnc1Sc1nc2ccccc2s1	> 100 µM (inactive)	57.8 µM (inactive)	80.4 µM (inactive)	63 µM (inactive)	> 100 µM (inactive)	> 100 µM (inactive)	> 100 µM (inactive)	> 100 µM (inactive)	> 100 µM (inactive)	> 100 µM (inactive)	> 100 µM (inactive)	> 100 µM (inactive)	42.4 µM (inactive)	> 100 µM (inactive)	> 100 µM (inactive)	–	32.1 µM (inactive)	> 100 µM (inactive)	> 100 µM (inactive)	45.8 µM (inactive)
CCN(CC)CCn1c2cc3c(cc2c(=O)c2cccnc21)OCCO3	> 10 µM (inactive)	> 10 µM (inactive)	> 10 µM (inactive)	> 10 µM (inactive)	9.71 µM (inactive)	> 10 µM (inactive)	> 10 µM (inactive)	> 10 µM (inactive)	> 10 µM (inactive)	6.4 µM (inactive)	> 10 µM (inactive)	0.0912 µM (active)	> 10 µM (inactive)	> 10 µM (inactive)	> 10 µM (inactive)	–	–	5.46 µM (inactive)	> 10 µM (inactive)	> 10 µM (inactive)
O/N=C1\CCc2nonc2\C1=N/Nc1ccccc1	> 100 µM (inactive)	> 100 µM (inactive)	> 100 µM (inactive)	39.9 µM (inactive)	> 100 µM (inactive)	> 100 µM (inactive)	> 100 µM (inactive)	> 100 µM (inactive)	> 100 µM (inactive)	> 100 µM (inactive)	> 100 µM (inactive)	–	> 100 µM (inactive)	57.3 µM (inactive)	> 100 µM (inactive)	> 100 µM (inactive)	30.5 µM (inactive)	> 100 µM (inactive)	> 100 µM (inactive)	> 100 µM (inactive)
O=C(N/N=C\c1ccc([N+](=O)[O-])cc1)c1ccccc1Nc1ccccc1C(=O)N/N=C/c1ccc([N+](=O)[O-])cc1	> 100 µM (inactive)	> 100 µM (inactive)	> 100 µM (inactive)	> 100 µM (inactive)	> 100 µM (inactive)	> 100 µM (inactive)	> 100 µM (inactive)	> 100 µM (inactive)	> 100 µM (inactive)	> 100 µM (inactive)	> 100 µM (inactive)	> 100 µM (inactive)	> 100 µM (inactive)	> 100 µM (inactive)	> 100 µM (inactive)	–	> 100 µM (inactive)	85.7 µM (inactive)	> 100 µM (inactive)	> 100 µM (inactive)
COC1OC(Cn2cc([N+](=O)[O-])nc2C)C(O)C(O)C1O (stereo unspecified)	> 100 µM (inactive)	> 100 µM (inactive)	> 100 µM (inactive)	> 100 µM (inactive)	–	> 100 µM (inactive)	> 100 µM (inactive)	> 100 µM (inactive)	> 100 µM (inactive)	> 100 µM (inactive)	> 100 µM (inactive)	> 100 µM (inactive)	> 100 µM (inactive)	> 100 µM (inactive)	> 100 µM (inactive)	–	> 100 µM (inactive)	> 100 µM (inactive)	> 100 µM (inactive)	> 100 µM (inactive)
O=C(CC1(O)CCCCC1)OC1CCCC1	> 100 µM (inactive)	> 100 µM (inactive)	> 100 µM (inactive)	> 100 µM (inactive)	> 100 µM (inactive)	> 100 µM (inactive)	> 100 µM (inactive)	> 100 µM (inactive)	> 100 µM (inactive)	–	> 100 µM (inactive)	> 100 µM (inactive)	> 100 µM (inactive)	> 100 µM (inactive)	–	> 100 µM (inactive)	> 100 µM (inactive)	–	> 100 µM (inactive)	–
C=C(Br)C(Cl)(CBr)CCC(Br)C(C)(C)Cl (stereo unspecified)	–	> 10 µM (inactive)	> 10 µM (inactive)	> 10 µM (inactive)	> 10 µM (inactive)	> 10 µM (inactive)	5.36 µM (inactive)	> 10 µM (inactive)	> 10 µM (inactive)	> 10 µM (inactive)	> 10 µM (inactive)	> 10 µM (inactive)	> 10 µM (inactive)	> 10 µM (inactive)	> 10 µM (inactive)	–	> 10 µM (inactive)	> 10 µM (inactive)	> 10 µM (inactive)	9.2 µM (inactive)
